Literature values, collected in US20250319118A1, “Prophylaxis and Treatment of Degraded Cartilage” (PhrixionLS, LLC, priority 2022, published 2025).

How the values were obtained:
osteoarthritis [1] = conditions: viscosupplementation
osteoarthritis [2] = conditions: for Limitations: clinical outcomes / OA symptoms: clinical trials, osteoarthritis

Q: Which “Benefit compared to placebo” value (osteoarthritis [1]) does the source give for hyaluronic acid [HA] here?
A: no significant benefit compared to placebo

Q: Which “Limitations: clinical outcomes / OA symptoms” value (osteoarthritis [2]; literature summary) does the source give for C[S+](CC[C@H](N)C(=O)[O-])C[C@H]1O[C@@H](n2cnc3c(N)ncnc32)[C@H](O)[C@@H]1O (some centres unmarked) [S-adenosyl-methionine (SAMe), S-adenosyl-methionine] here?
A: Shown to improve OA symptoms,

Q: Which “Limitations: clinical outcomes / OA symptoms” value (osteoarthritis [2]; literature summary) does the source give for Bromelain here?
A: Mixed results in clinical trials,

Q: With C[C@H]1CN(C(=O)CC[C@@]2(C3CC3)NC(=O)NC2=O)CCN1c1cc(F)cc(F)c1 [GLPG1972, reference compound] as the molecule, how does the Efficacy versus placebo (osteoarthritis [2]; Phase-2 study) read?
A: No significant difference versus

B1: Sprifermin: Drug (Trial), investigated as disease-modifier for cartilage damage (protein, UniProt O76093 28-207, looked up)
Fibroblast growth factor 18: EENVDFRIHVENQTRARDDVSRKQLRLYQLYSRTSGKHIQVLGRRISARGEDGDKYAQLLVETDTFGSQVRIKGKETEFYLCMNRKGKLVGKPDGTSKECVFIEKVLENNYTALMSAKYSGWYVGFTKKGRPRKGPKTRENQQDVHFMKRYPKGQPELQKPFKYTTVTKRSRRIRPTHPA
Q: For B1, which “Limitations: effect on cartilage (regeneration / protection)” value (osteoarthritis [2]; clinical and preclinical data, literature summary) is on record?
A: Demonstrated positive effects
